From patent US4210581A, “Organic compounds” (Sandoz Ltd., priority 1975, dated 1980)

Assays:
Aspergillus Niger = assay: Activity against Aspergillus Niger; type: cell-based
Excerpt: Cyclosporin C may be isolated by chromatography as a compound active against Aspergillus Niger and having greater polarity than Cyclosporins A and B (designated S7481/F-1 and S7481/F-2 in the above mentioned D.O.S.).

[1] = system: hemolytic plaque-forming cells; assay: Jerne test (local hemolysis in gel); type: in vivo; details: mice, 50 to 200 mg/kg per os
Excerpt: (i) in the Jerne test the effect of the substance on local hemolysis in gel is observed.

[2] = system: antibodies formed against sheep erythrocytes; assay: Hemagglutination test (HAT); type: in vivo; details: mice, 100 to 200 mg/kg per os
Experimental: (ii) in the hemagglutination test (HAT) in mice a stimulation of the antibodies formed against sheep erythrocytes is obtained at a dose of from 100 to 200 mg/kg per os. animal body weight;

[3] = system: skin grafts in H-2 histoincompatible mice; assay: Skin transplantation (allograft) test; type: in vivo; details: 100 to 200 mg/kg per os
[4] = system: oxazolone skin hypersensitivity swelling; assay: Oxazolone skin hypersensitivity reaction; type: in vivo; details: mice, doses of 70 to 200 mg/kg
[5] = Solubility at room temperature; type: physicochemical
[6] = system: paralysis induced by experimentally induced nerve tissue damages; assay: Experimental allergic encephalomyelitis (EAE) test; type: in vivo; details: rats, between 50 and 100 mg/kg/day
[7] = system: Freund adjuvant arthritis swellings; assay: Freund adjuvant arthritis latent period test; type: in vivo; details: rats, p.o., about 1 to about 10 mg/kg

Compound	activity against Aspergillus Niger (Aspergillus Niger)	stimulation of hemolytic plaque-forming cells (immunoglobulin M and G2a antibodies) [1]	stimulation of the antibodies formed against sheep erythrocytes [2]	prolongation in the period of survival of skin grafts [3]	inhibition of swelling [4]	solubility in organic solvents ([5]; benzene, dichloromethane, chloroform, ethyl acetate, acetone, ethanol and methanol)	solubility in water ([5]; water)	incidence of paralysis [6]	inhibition of swellings [7]
C/C=C/C[C@@H](C)[C@@H](O)[C@H]1C(=O)N[C@@H]([C@@H](C)O)C(=O)N(C)CC(=O)N(C)[C@@H](CC(C)C)C(=O)N[C@@H](C(C)C)C(=O)N(C)[C@@H](CC(C)C)C(=O)N[C@@H](C)C(=O)N[C@H](C)C(=O)N(C)[C@@H](CC(C)C)C(=O)N(C)[C@@H](CC(C)C)C(=O)N(C)[C@@H](C(C)C)C(=O)N1C [Cyclosporin C, cyclosporin C]	active	–	–	–	–	–	–	–	–
dihydrocyclosporin C	–	significant stimulation	stimulation	significant prolongation	significant and pronounced inhibition	easily soluble	difficulty soluble	reduced significantly	inhibition of swellings
